# Source: article PMC3797749, “Functional Characterisation of the Maturation of the Blood-Brain Barrier in Larval Zebrafish” (PLoS ONE, 2013)
# How the values were obtained:
# zebrafish larvae [1] = assay: in vivo; conditions: for Absorption (whole body) (% uptake): 15 µg/ml (5 µg/ml scopolamine) immersion 1 hour, tissue vs medium concentration; for drug level (LC/MS/MS): 5 µg/ml 1 hour
# Method: (§1) Initial drug exposure assays were performed in larval zebrafish to identify a sufficiently high concentration of drug that could be detected by liquid chromatography/tandem mass spectrometry (LC/MS/MS) analysis without causing toxicity. Maximum tolerated concentration (MTC) was determined using n=6 larvae per group. […] Compounds of interest were prepared as 2 mg/ml stocks in dimethyl sulfoxide (DMSO). […] Larvae were incubated in the drug for 1 hour at room temperature then anaesthetised on ice. For whole uptake analysis, anaesthetised larvae were transferred to 1.5 ml microfuge tubes and all excess liquid was removed. 100 µl ice cold PBS was added, samples were briefly centrifuged and all excess liquid was removed. For brain versus body uptake analysis, larvae were anaesthetised by chilling prior to decapitation using fine iridectomy scissors and No. 5 watchmaker forceps. Head and body tissue samples were collected in separate microfuge tubes on ice and excess liquid removed. 100 µl ice cold PBS was added and samples were briefly centrifuged and all excess liquid removed. The weight of the tissue sample was measured and the samples were frozen at -20 °C prior to extraction for LC/MS/MS.
# (§2) Test compound was added to the well containing 50 µg/ml verapamil and larvae were incubated for a further hour at room temperature prior to tissue collection as described. For subsequent LC/MS/MS analysis, tissue samples were thawed and after addition of an internal standard (clozapine) extracted into an organic solvent (tertiary-butyl methyl ether, t-bme). […] The analytes and internal standard were ionised under atmospheric pressure chemical ionisation (APCI) conditions operating in positive ion mode. Detection was via tandem mass spectrometry (MS/MS) using selected ion monitoring (SIM). All analyses were performed using a Finnigan LCQ quadrupole ion trap mass spectrometer.
# (§3) A panel of 5 drugs known to either cross or not cross the BBB in mammals were selected to test in zebrafish larvae. Larvae of different ages were exposed to these compounds at non-toxic concentrations for 1 hour prior to collection of head and trunk tissue for analysis of drug concentration. A generic extraction method was developed and LC/MS/MS was performed to analyse the concentration of drug in head and trunk tissue in larvae of different ages. Drug/tissue concentrations were normalised against a standard and the relative amount of drug in head and trunk samples was compared to determine whether the drug distribution altered with larval age (Table 2).
# in vivo = conditions: zebrafish, in vivo, immersion 1 hour
# Method: as §1, §2, §3
# zebrafish larvae [2] = assay: Dye exclusion experiments (pericardial injection, brain fluorescence quantification); assay type: in vivo
# Method: Stocks of 2% Evans blue (961 Da) and 10% sodium fluorescein (376 Da) in 0.9% saline were prepared and stored at 4 °C. Larvae were anaesthetised by immersion in 0.2 mg/ml 3-amino benzoic acid (MS222) prior to being immobilised and positioned laterally in 3% methyl cellulose in embryo medium such that the heart was accessible. Larvae and juveniles from 2 days post-fertilisation (d.p.f.) to 30 d.p.f. were injected with 0.5 to 2 nl (depending on age) of dye or saline control into the pericardial region, using a standard zebrafish microinjection apparatus. Fish were transferred to fresh embryo medium to recover from anaesthesia, then viewed using a fluorescence dissecting microscope at 1 hour intervals to determine the time of uptake of the dye into the circulation and the time at which dye had permeated from the circulation into non-vascular body tissue. Representative images of dye distribution in vivo were taken on a Zeiss AxioZoom V16 microscope with Apotome. Dye and saline injected larvae were anaesthetised at 4 or 6 hours after injection and fixed in 4% paraformaldehyde in PBS. Ten larvae per age group and injection treatment were embedded in Sakura Tissue-Tek OCT (Bayer, Newbury, UK) and frozen parasagittal sections were cut at 10 µm thickness.
# Sections were visualised without mounting medium by fluorescence microscopy on an Olympus BX51 microscope. Three midline sagittal sections from each larva were identified and images were captured using a ColorView camera (Olympus) and AnalySis software (Soft Imaging System). The fluorescence intensity within the brain was quantified for each midline section of each larva in each treatment group using colour threshold and area measurements in AnalySis. Mean values, standard deviations and Student’s t-tests were calculated using Excel software (Microsoft Office).
# Rhodamine 123 (R123) was dissolved in 10% ethanol/0.9% saline to make a 0.5 mg/ml stock. […] Quantification of fluorescence in the brain was performed as described above.
# [3] = known from mammals, no reference given; cited from earlier work
# Abcb1/4/5 = assay: Rhodamine 123 dye exclusion in the presence of verapamil; assay type: in vivo, zebrafish; conditions: 8 d.p.f. and 10 d.p.f.; verapamil 50 µg/ml; 3 hours after injection
# Method: Dye exclusion experiments on larvae at 3, 5, 8 and 10 d.p.f. were performed as described above using 0.2 nl R123. Some larvae were exposed to verapamil at 50 µg/ml for 2 hours prior to and during intrapericardial injection of R123 and for 3 hours after injection. At 3 hours after injection, larvae were anaesthetised and fixed in 4% PFA prior to processing for frozen sections. Quantification of fluorescence in the brain was performed as described above.
# [4] = ref ChemIDplus; cited from earlier work
# [5] = 15 µg/ml, Head concentration, 5 d.p.f.
# [6] = 15 µg/ml, Head concentration, 8 d.p.f.
# [7] = 15 µg/ml, Trunk concentration, 5 d.p.f.
# [8] = 15 µg/ml, Trunk concentration, 8 d.p.f.
# [9] = pericardial injection, brain fluorescence on frozen sections vs saline
molecule,measurement,setting,value
Clc1ccc2c(c1)CCc1cccnc1C2=C1CCNCC1 [Desloratadine],Absorption (whole body) (% uptake),zebrafish larvae [1]; 5 d.p.f.,14.8%
same,Absorption (whole body) (% uptake),zebrafish larvae [1]; 10 d.p.f.,28.5%
CN(C)CCOC(c1ccccc1)c1ccccc1 [Diphenhydramine],concentration at 1 h,in vivo; [5],21600 ng/g
same,concentration at 1 h,in vivo; [6],31200 ng/g
same,concentration at 1 h,in vivo; [7],21100 ng/g
same,concentration at 1 h,in vivo; [8],24000 ng/g
same,concentration at 1 h,"in vivo; Head concentration, 10 d.p.f.",52800 ng/g
same,concentration at 1 h,"in vivo; Trunk concentration, 10 d.p.f.",54800 ng/g
Cc1cc(-c2ccc(/N=N/c3ccc4c(S(=O)(=O)O)cc(S(=O)(=O)O)c(N)c4c3O)c(C)c2)ccc1/N=N/c1ccc2c(S(=O)(=O)O)cc(S(=O)(=O)O)c(N)c2c1O [Evans blue],larval age at which the injected dye is excluded from the brain,"zebrafish larvae [2]; zebrafish, in vivo, 3 h",5 d.p.f.
O=C(CCCN1CCC(O)(c2ccc(Cl)cc2)CC1)c1ccc(F)cc1 [Haloperidol],BBB penetration in mammals,[3],(penetrant)
same,"amount of drug absorbed, larval tissue as % of the medium concentration","zebrafish larvae [1]; 1 hour exposure, lowest and highest value over drugs and ages",949%
same,Absorption (whole body) (% uptake),zebrafish larvae [1]; 5 d.p.f.,732.6%
same,Absorption (whole body) (% uptake),zebrafish larvae [1]; 8 d.p.f.,949.5%
same,Absorption (whole body) (% uptake),zebrafish larvae [1]; 10 d.p.f.,713.5%
same,concentration at 1 h,in vivo; [5],116000 ng/g
same,concentration at 1 h,in vivo; [6],136000 ng/g
same,concentration at 1 h,in vivo; [7],104000 ng/g
same,concentration at 1 h,in vivo; [8],149000 ng/g
same,concentration at 1 h,"in vivo; Head concentration, 10 d.p.f.",113000 ng/g
same,concentration at 1 h,"in vivo; Trunk concentration, 10 d.p.f.",101000 ng/g
COC(=O)c1ccccc1-c1c2ccc(=N)cc-2oc2cc(N)ccc12 [Rhodamine 123],exclusion of R123 from the brain in the presence of verapamil,Abcb1/4/5,failed to be excluded
same,larval age at which the injected dye is excluded from the brain,zebrafish larvae [2]; [9],8 d.p.f.
CN1[C@@H]2C[C@@H](OC(=O)[C@H](CO)c3ccccc3)C[C@H]1[C@@H]1O[C@@H]12 [Scopolamine],drug level (LC/MS/MS),zebrafish larvae [1]; 5 d.p.f.,below the detection limits
same,drug level (LC/MS/MS),zebrafish larvae [1]; 8 d.p.f.,below the detection limits
same,Head concentration,"zebrafish larvae [1]; 10 d.p.f., immersion 1 hour",.65 µg/g
same,Trunk concentration,"zebrafish larvae [1]; 10 d.p.f., immersion 1 hour",.63 µg/g
"O=C([O-])c1ccccc1-c1c2ccc(=O)cc-2oc2cc([O-])ccc12.[Na+].[Na+] [Sodium fluorescein, sodium fluorescein]",larval age at which the injected dye is excluded from the brain,zebrafish larvae [2]; [9],10 d.p.f.
Scopolamine N-butyl bromide,LogP,[4],-1.11
